“Also recorded” adds a separate entry of the source. Residues, ends and D or L forms follow the SMILES beside them.
Legend:
EpiDerm skin model = test: viability assay (MTT) in EpiDerm skin model; assay type: cell-based; conditions: peptide at 500 μM and 2 mM, relative to PBS control
Description: The sample containers were transferred to 6 well plates that contained fresh media. All peptides were dissolved in PBS at a final concentration of 10 mM, and 100 μL each peptide solution was pipetted onto the surface of the Epiderm sample container. Incubation was continued for 12 hours at 37° C., 5% CO2. After the incubation period, the sample containers were washed three times with PBS and the sample containers were transferred to a 24 well plate that contained 300 μL of MTT assay media per well (MTT concentration was 1 mg/mL). The colorimetric assay was allowed to develop for three hours (incubation at 37° C., 5% CO2). Sample containers were then transferred to a 24 well culture plate that contained 2 mL of isopropanol per well. Extraction of the colored precipitate occurred over a period of four hours at room temperature. Absorbance readings were taken at 570 nm and 650 nm for each sample. The percent viability of each sample relative to a PBS control was calculated as: 100×(OD570^sam−OD650^sam)/(OD570^con−OD650^con) (6) Routinely, the peptide sample was assayed in triplicate. Results

[1] = tested on: normal human dermal fibroblasts (NHDF); test: NHDF migration assay, 48-well chemotaxis chamber; assay type: cell-based; conditions: for induction of NHDF migration: concentrations ranging from 1000 μg/mL to 10 ng/mL (data not shown)
Description: Normal, human dermal fibroblasts (NHDF) were obtained from Biowhittaker, (Walkersville, Md.) and propagated in T75 flasks in FBM media (500 mL, Biowhittaker) containing insulin, hFGF-b, GA-1000, and fetal bovine serum (10 mL) for up to 12 passages. For the migration assay, NHDF were washed once with 10 mL of Hank's buffered saline solution (HBSS). Three milliliters of trypsin (0.25%) in EDTA were added to the T75 flask for no more than five minutes to remove NHDF from the flask. NHDF in trypsin solution were added to 7 mL of FBM with no supplements added. NHDF were centrifuged for 5 minutes, and the supernatant was removed. NHDF were resuspended in 10 mL of FBM for counting. NHDF were centrifuged for another 5 minutes, and the supernatant was removed. NHDF were resuspended at 1×10^6 cells per mL in FBM without supplements. It was important to use FBM media only in migration assays because the complete media contains fibroblast growth factor and serum, both of which will trigger migration of fibroblasts.
(§1) Peptides were synthesized and purified by the Microchemical Facility at Emory University or by SigmaGenesis. All peptides were analyzed by mass spectrometry after HPLC to assess purity. Approximately 0.5–2.0 milligrams of peptide were used to make fresh stock solutions (5 mg/mL in PBS) for each migration assay. The peptide stock solutions in PBS were used to make more dilute solutions (1 mg/mL, 100 μg/mL, 10 μg/mL, 1 μg/mL, 100 ng/mL, 10 ng/mL) in FBM (without supplements) for the migration assays.
Polyvinylpyrrolidone-free polycarbonate membranes with […] pores (Neuroprobe, Inc., Gaithersburg, Md.) were washed with 90% ethanol for 15 minutes and rinsed four times with deionized water. Membranes were then placed into a glass dish containing an aqueous solution of 5 μg/mL gelatin. The glass dish was placed in to a water bath at about 90° C. for one hour. Membranes were removed from the gelatin solution and were allowed to dry for one hour in the 37° C. incubator.
A 48-well chemotaxis chamber (Neuroprobe, Inc., Gaithersburg, Md.) (see FIG. 20) was used for the migration assays. Twenty-eight μL of each test solution were added to the bottom wells of the chamber in quadruplicate. A gelatin-treated membrane was placed carefully on top of the bottom wells. The gasket and top part of chamber were then placed carefully on top of the membrane. The apparatus was tightened using six thumbscrews. A solution of NHDF containing an estimated cell density (2×10^5 cells per mL) was made by adding 320 μL of the 1×10^6 cells per mL solution to 1.28 mL of FBM (no supplements). Fifty microliters of the 2×10^5 cells per mL NHDF solution were added to the top part of each well in the chamber. The chamber was placed in the incubator at 37° C./5% CO2 for three hours. The chamber was removed, the thumbscrews were removed, and the chamber was turned upside down on a paper towel. […] The membrane was carefully removed. […] The membrane was fixed with methanol and stained using the Diff-Quik Staining Solutions I and II. The nuclei of NHDF are stained purple. The membrane was mounted on a glass slide using cedarwood immersion oil and a cover slip. […] The average number of migrated NHDF in the negative control was subtracted from the experimental (peptide) data and positive control data.

neutrophils = test: neutrophil migration assay, transwell plate; assay type: cell-based, human; conditions: 10 nM, positive control
Description: as §1, with “HBSS/HSA)” for “PBS)”, “solutions” for “solutions in PBS”, “ng/mL, and” for “ng/mL,”, “HBSS/HSA” for “FBM (without supplements)”, “the” for “the migration”
Neutrophils were isolated from human blood (collected in Vacutainer™ tubes containing EDTA) by layering the blood/EDTA mixture (about 20 mL) on top of two layers of Histopaque™ 1119 (bottom layer, 18 mL) and 1077 (top layer, 7 mL) in 50 mL Falcon tubes. The tubes were centrifuged at 1800 rpm for 30 minutes (no brake). Four layers appeared in the tubes after the spin (from top to bottom layers): plasma, 1077, 1119, and red blood cells. The buffy coat between the plasma and 1077 layers contained lymphocytes, monocytes, and some platelets. The plasma layer, the buffy coat, and most of the 1077 layer was removed and discarded. The 1119 layer that contained the neutrophils was removed and was placed into a clean 50 mL tube. Dulbecco's Phosphate Buffered Saline (DPBS) was added to bring the volume to 50 mL. The cells were centrifuged for 15 minutes at 2100 rpm. The cells were resuspended in 10 mL of DPBS, transferred to 15 mL tubes, and centrifuged again for 10 minutes at 2000 rpm. This process was repeated to wash the cells a second time. After the supernatant was removed, the red blood cells were lysed by adding 6 mL of cold sterile water to each 15 mL of supernatant. Cells were mixed in the water for only 30 seconds. Six mL of cold 2% sterile saline was then added. Cells were centrifuged again for 10 minutes at 2000 rpm. The red supernatant (containing hemoglobin from red blood cells) was removed. This process of red blood cell lysis was repeated two more times to remove all of the red blood cells. After most of the red blood cells were removed, neutrophils were resuspended in 10 mL of HBSS/HSA for counting with trypan blue.
A neutrophil migration assay was performed in duplicate using a 24-well transwell plate (3 μm pore size for membrane). Transwell membranes were pre-moistened with 20–40 μL of HBSS/HSA (0.04–0.4%). Chemotactic solutions (500 μL) were added to the bottom of each well. […] Transwells were then placed into the chemotactic solutions. The plate was placed into the incubator (37° C., 5% CO2) for one hour. Cells that migrated through the membrane were counted using trypan blue.
In the neutrophil migration experiments, neutrophils that were isolated were approximately 95% viable. […]

## N=C(N)NCCC[C@H](NC(=O)[C@@H]1CCCN1C(=O)[C@H](Cc1ccccc1)NC(=O)[C@H](Cc1ccccc1)NC(=O)[C@H](CC(N)=O)NC(=O)[C@H](Cc1ccc(O)cc1)NC(=O)[C@@H](N)CC(N)=O)C(=O)N[C@@H](CCCCN)C(=O)N1CCC[C@H]1C(=O)N[C@@H](CCCCN)C(=O)O [Peptide 10-mer] (H-NYNFFPRKPK-OH; N-terminus and C-terminus assumed)
EpiDerm skin model
  total average viability: 89.6%
[1]; 100 μg/mL peptide
  NHDF migration, percent of the plasma fibronectin positive control: 11±0%
[1]; 1000 μg/mL peptide
  NHDF migration, percent of the plasma fibronectin positive control: 30±2%

## CC(C)[C@H](NC(=O)[C@H](CC(=O)O)NC(=O)[C@@H]1CCCN1C(=O)[C@H](CC(N)=O)NC(=O)CNC(=O)[C@H](CS)NC(=O)[C@H](CCCNC(=N)N)NC(=O)[C@@H]1CCCN1)C(=O)N[C@@H](C)C(=O)O [Peptide 9-mer] (H-PRCGNPDVA-OH; N-terminus and C-terminus assumed)
EpiDerm skin model
  total average viability: 95.8%
[1]; 100 μg/mL peptide
  NHDF migration, percent of the plasma fibronectin positive control: 16±10%
[1]; 1000 μg/mL peptide
  NHDF migration, percent of the plasma fibronectin positive control: 32±2%

## TMRKPRCGNPDVAN (listed as Homo sapiens) [Peptide 14-mer]
[1]
  induction of NHDF migration: not chemotactic to NHDF at any concentration; also recorded: did not induce NHDF migration; also recorded: no effect on fibroblast mobility

## IL-8: positive control for neutrophil migration, 10 nM [reference compound]
neutrophils; 0.04% HSA
  Percent Neutrophil Migration exp. 2: 51%
neutrophils; 0.4% HSA
  Percent Neutrophil Migration exp. 1: 81%

## TLKAMRKPRCGNPDVAN (listed as Homo sapiens) [Peptide 17-mer]
[1]
  induction of NHDF migration: not chemotactic to NHDF at any concentration; also recorded: did not induce NHDF migration; also recorded: no effect on fibroblast mobility

Source: patent publication US7148194B2, “Method to increase fibronectin” (Kimberly-Clark Worldwide, Inc., priority 2002, dated 2006)
